Measurements: patent publication US11744901B2, “Phage conjugates and uses thereof” (CONSIGLIO NAZIONALE DELLE RICERCHE, priority 2017, dated 2023)

Legend:
[1] = human immunotherapy, repeated KRN7000 administration; cited from earlier work
[2] = tested on: B16 melanoma cells; test: Therapeutic vaccination against B16 tumour cells; type: in vivo; conditions: B16 melanoma subcutaneous in C57BL/6 mice, intratumoural treatment when tumours palpable; FIG. 4
Procedure: C57BL/6 mice (n=5/group) were inoculated with 2.5×10^5 B16 melanoma cells kindly provided by Dr. Dellabona (Istituto scientifico San Raffaele, Milan, Sartorius R et al., 2011) subcutaneously in the left side. When the tumours became palpable, the mice were vaccinated with PBS, 2.5 micrograms aGalCer, 50 micrograms of fdWT bacteriophages or 50 micrograms of fdWT/aGalCer in a total volume of 80 microliters. Tumour growth was assessed three times a week using a caliber and reported as tumour volume (in mm^3) according to the formula (d^2×D)/2, where d and D are the minor diameter and the major one, respectively. The mice were sacrificed when the size of the tumour had exceeded 1,500 mm^3, in compliance with the established guidelines. Survival was recorded as the percentage of surviving animals.

[3] = tested on: splenocytes; conditions: stated as known, cited from earlier work
[4] = tested on: iNKT cells; conditions: animal model; prevents release of cytokines after recall stimulations (Sullivan and Kronenberg 2005); cited from earlier work

SMILES | tolerability in patients [1] | tumour growth [2] | levels of T-cell receptor (TCR) on iNKTs ([3]; administered intravenously to mice) | ability of splenocytes to proliferate and produce cytokines after in vitro restimulation with aGalCer ([3]; mice injected with soluble aGalCer, compared to naive splenocytes) | clinical response in patients [1] | anergy of iNKT cells [4]
CCCCCCCCCCCCCCCCCCCCCCCCCC(=O)N[C@@H](CO[C@H]1OC(CO)[C@H](O)C(O)C1O)[C@H](O)[C@H](O)CCCCCCCCCCCCCC (stereo partly drawn) [aGalCer, alpha-Galactosylceramide] | well tolerated |  |  |  |  | 
CCCCCCCCCCCCCCCCCCCCCCCCCC(=O)N[C@@H](CO[C@H]1O[C@H](CO)[C@H](O)[C@H](O)[C@H]1O)[C@H](O)[C@H](O)CCCCCCCCCCCCCC [aGalCer, alpha-Galactosylceramide] |  | not able to protect animals from tumour growth | decrease | lose rapidly their ability to proliferate and produce cytokines | weak clinical response | induces long term cell anergy of iNKT cells
